Experimental data taken from patent publication US6416987B1, “Mutants of thymidylate synthase and uses thereof” (Sloan Kettering Institute for Cancer Research, priority 1997, dated 2002).
Where two headings read alike, the source gives them in different places.

Assays:
[1] = in vivo; cited from earlier work
[2] = cited from earlier work
[3] = test system: HT1080 cells; test: EMS sensitivity of HT1080 cells (colony formation); assay type: cell-based; conditions: Homo sapiens, HT-1080; 400 μg/ml EMS, 18 hr exposure
Description: HT1080 cells were seeded into 6-well plates (100-300 cells/well). After overnight incubation to allow cell attachment, The cells were exposed with EMS for 18 hours, washed three times, and then incubated with EMS-free medium for a further 14 days. The range of EMS concentration tested was 100 to 1000 μg of EMS/ml of culture medium. Colonies formed (50 cells) were stained with crystal violet and counted. The concentration of EMS used for the random mutagenesis experiments was determined based on the number of colonies obtained in the EMS-treated test versus EMS concentrations (Sega, 1984; Fanin et al., 1993).

[4] = test system: human colon tumor cell line with Tyr33 to His33 TS; conditions: cited from earlier work
[5] = test system: TS-negative FSthy21 cells transfected with F225L mutant human TS cDNA; assay type: cell-based, mouse; conditions: FdUrd; F225L/clone (3) vs wild-type clone (1)
[6] = test system: TS-negative FSthy21 cells transfected with G52S mutant human TS cDNA; assay type: cell-based, mouse
[7] = test system: TS-negative FSthy21 cells transfected with K47E mutant human TS cDNA; assay type: cell-based, mouse; conditions: FdUrd; K47E/clone (2) vs wild-type clone (1)
[8] = biological target: TS-negative FSthy21 cells transfected with wild-type human TS cDNA (Homo sapiens, UniProt P04818, P2L, cells depend on it); test: Growth inhibition assay (alamar Blue), TS-negative cells transfected with wild-type human TS cDNA; assay type: cell-based, mouse; conditions: FdUrd, 7-day exposure, read-out: IC50 values
[9] = test system: TS-negative FSthy21 cells transfected with L221S mutant human TS cDNA; assay type: cell-based, mouse; conditions: FdUrd; L221S/clone (2) vs wild-type clone (1)
[10] = test system: TS-negative FSthy21 cells transfected with L221A mutant human TS cDNA; assay type: cell-based, mouse; conditions: FdUrd; L221A/clone (2) vs wild-type clone (1)
[11] = test system: TS-negative FSthy21 cells transfected with D49G mutant human TS cDNA; assay type: cell-based, mouse
[12] = biological target: TS-negative FSthy21 cells transfected with I108A mutant human TS cDNA (Homo sapiens, UniProt P04818, P2L/I108A, cells depend on it); test: Growth inhibition assay (alamar Blue), I108A transfectants; conditions: read-out: IC50 values, FdUrd, 7-day exposure
Description: (§1) The mouse TS-negative FSthy21 cells were used as the host for DNA transfections. This cell line, which is a TS-deficient derivative of mouse FM3A cells, was routinely maintained in MEM medium supplemented with 10% fetal bovine serum and 10×10^−5 M thymidine. Transfections were performed by DOTAP, using 10 μg of DNA/culture. Four days after transfection, cells were placed in selective medium, which contain no thymidine and reduced folate. Colonies having the ability to grow in the absence of thymidine were pooled and propagated as a mass culture.
(§2) Logarithmically growing suspension mouse TS-20 negative FSthy21 cells transfected with wild-type or variant human TS cDNA were seeded in 96-well plates at 1,000 cells/well in 180 μl of complete medium. […] Cell viability was measured by the alamar Blue™ assay. This method incorporates an oxidation-reduction (REDOX) indicator that both fluoresces and changes color in response to chemical reduction of growth medium resulting from cell growth. To above 96-well cultured cells, 25 μl of Alamar Blue (Alamar, Sacramento, Calif.) (10% of incubation volume) were added according to the manufacturer's instructions. The culture 96-well plates were then incubated at 37° C. for 4 hours. Viable cells induce chemical reduction of the media which results in a change in REDOX color from blue to red. The intensity of red color (and fluoresces) is proportional to the viable cells. After incubation, fluorescence is was read at 530-560 nm excitation wavelength and 590 nm emission wavelength by an automated plate reader (model EL340; Bio-Tek). Drug concentrations needed to reduce cell growth by 50% (IC50 values) were determined graphically by plotting of cell growth verses inhibitor concentration.
(§3) The effect of three antifolates and FdUrd on the growth characteristics of transfectants that stably express various TS proteins was evaluated by cytotoxicity studies. Cell growth was measured by the alamar blue assay. IC50 values were calculated as the concentration of inhibitor required to inhibit growth by 50% compared to wild-type transfected cells grown under identical conditions.

[13] = test system: TS-negative FSthy21 cells transfected with I108A mutant human TS cDNA; test: as above; conditions: for Ratio of IC50 values for mutant/wt cells: FdUrd
Description: as §1, §2, §3

[14] = test system: TS-negative FSthy21 cells transfected with F225Y mutant human TS cDNA; assay type: cell-based, mouse; conditions: FdUrd; F225Y/clone (1) vs wild-type clone (1)
[15] = test system: TS-negative FSthy21 cells transfected with F225W mutant human TS cDNA; assay type: cell-based, mouse
[16] = test system: TS-negative FSthy21 cells transfected with I108F mutant human TS cDNA; assay type: cell-based, mouse; conditions: FdUrd; 1108F/clone (2) vs wild-type clone (1)
[17] = test system: TS-negative FSthy21 cells transfected with L221I mutant human TS cDNA; assay type: cell-based, mouse; conditions: FdUrd; L221I/clone (1) vs wild-type clone (1)

TS-negative FSthy21 cells transfected with I108A mutant human TS cDNA (Homo sapiens, UniProt P04818, P2L/I108A, cells depend on it), sequence (P04818 whole entry P2L/I108A): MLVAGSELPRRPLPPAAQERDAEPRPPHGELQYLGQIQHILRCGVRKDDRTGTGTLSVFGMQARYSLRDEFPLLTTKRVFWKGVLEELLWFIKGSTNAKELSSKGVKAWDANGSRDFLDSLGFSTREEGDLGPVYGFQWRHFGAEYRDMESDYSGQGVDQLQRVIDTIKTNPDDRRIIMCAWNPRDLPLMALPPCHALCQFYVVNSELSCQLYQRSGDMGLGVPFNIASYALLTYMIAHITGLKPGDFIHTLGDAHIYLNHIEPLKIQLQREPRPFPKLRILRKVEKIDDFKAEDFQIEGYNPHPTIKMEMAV
TS-negative FSthy21 cells transfected with wild-type human TS cDNA, sequence (P04818 whole entry P2L): as the sequence (P04818 whole entry P2L/I108A) above, with A108I counted along it

For `C#CCN(Cc1ccc2nc(N)[nH]c(=O)c2c1)c1ccc(C(=O)N[C@@H](CCC(=O)O)C(=O)O)cc1` [CB3717, N^10-propargyl-5,8-dideazafolic acid], the “toxicity in Phase I trials” value [1] is given as “severe renal and hepatic toxicity” and the aqueous solubility [2] is given as “poor”.

With `CCOS(C)(=O)=O` [EMS, Ethylmethanesulfonate] the inhibition at 400 µg/mL [3] was 80%.

In the case of `O=c1[nH]c(=O)n([C@H]2C[C@H](O)[C@@H](COP(=O)(O)O)O2)cc1F` [FdUMP, 5-fluoro-2-deoxyuridylate], the “resistance conferred by Tyr33 to His33 substitution” value [4] is listed as 3- to 4 fold.

For `O=c1[nH]c(=O)n([C@H]2C[C@H](O)[C@@H](CO)O2)cc1F` [FdUrd, 5-fluoro-2′-deoxyuridine], the “Ratio of IC50 values for mutant/wt cells” value [5] was 5.7(1), the “Ratio of IC50 values for mutant/wt cells” value ([6]; FdUrd, G52S/clone (3) vs wild-type clone (1)) was 97(1) and the “resistance, IC50 values greater than wild-type transfectants” value ([6]; G52S transfectants vs wild-type transfectants) was 97 fold. For the same molecule, the “Ratio of IC50 values for mutant/wt cells” value [7] was 5.7(1), the GI50 ([8]; wild-type/clone (1) [161-1]) was 0.029 ± 0.0003 nM and the GI50 ([8]; wild-type/clone (2) [161-2]) was 0.0896 ± 0.0062 nM. The GI50 ([8]; wild-type/clone (3) [161-3]) was 0.0286 ± 0.0002 nM, the “Ratio of IC50 values for mutant/wt cells” value [9] was 1.2(1) and the “Ratio of IC50 values for mutant/wt cells” value [10] was 4.0(1). For the same molecule, the “resistance, IC50 values greater than wild-type transfectants” value ([11]; D49G transfectants vs wild-type transfectants) was 26 fold, the “Ratio of IC50 values for mutant/wt cells” value ([11]; FdUrd, D49G/clone (1) vs wild-type clone (1)) was 26(1) and the GI50 ([12]; 1108A/clone (1) [175-1]) was 1.4 ± 0.19 nM. For the same molecule, the GI50 ([12]; 1108A/clone (2) [175-2]) was 1.05 ± 0.18 nM, the GI50 ([12]; 1108A/clone (3) [175-3]) was 1.37 ± 0.25 nM and the “Ratio of IC50 values for mutant/wt cells” value ([13]; 1108A/clone (1) vs wild-type clone (2)) was 16(2)^2. For the same molecule, the “Ratio of IC50 values for mutant/wt cells” value ([13]; 1108A/clone (2) vs wild-type clone (2)) was 12(2), the “Ratio of IC50 values for mutant/wt cells” value ([13]; 1108A/clone (3) vs wild-type clone (2)) was 15(2) and the “resistance, IC50 values greater than wild-type transfectants” value ([13]; I108A transfectants vs wild-type transfectants) was 12 fold. The “Ratio of IC50 values for mutant/wt cells” value [14] was 1.0(1), the “resistance, IC50 values greater than wild-type transfectants” value ([15]; F225W transfectants vs wild-type transfectants) was 25 fold and the “Ratio of IC50 values for mutant/wt cells” value ([15]; FdUrd, F225W/clone (2) vs wild-type clone (1)) was 25(1). For the same molecule, the “Ratio of IC50 values for mutant/wt cells” value [16] was 6.1(1) and the “Ratio of IC50 values for mutant/wt cells” value [17] was 13(1).
